# Assay results: patent publication US11826399B2, “Chlorotoxin agents and uses thereof” (Eisai Inc., priority 2017, dated 2023)
# Values joined by “and” are separate entries in the source; they are usually repeats but may differ in a detail not shown here. Identical values can stand only once.
# Assay: Plasma and tissue distribution of Cryptophycin Payload and Cryptophycin Metabolite 1 after Cryptophycin Payload alone or with CTX in PC-3 xenograft nude mice (LC-MS/MS)
# Type: in vivo, mouse
# Description: For the present experiment, materials, methods, drugs and model were as described in Example 21. […] Following intravenous administration, whole blood samples were collected at predetermined time points via cardiac puncture (n=3 mice per time point). Blood samples were centrifuged to obtain plasma and subsequently stored at […] or lower pending analysis. Additionally, at each time point, kidney, liver, small intestine, brain, heart, and tumor were harvested by removing entire specimen from surrounding tissues (only a portion of liver and small intestine were removed). After removal, tissues were rinsed with normal saline solution (contents of small intestine were emptied) and blotted dry with clean adsorptive tissue. Once dried, the specimens were weighed and stored at −20° C. or lower pending analysis. […] Pharmacokinetic (PK) parameters were calculated. Mean plasma and tissue concentrations were used to calculate mean PK parameters. Skin and skeletal muscle which were not assessed due to difficulty of homogenization.
# Vehicle for single dose group was 10% ethanol, 5% Tween 80, 85% saline. Vehicle for combination treatment was 5% ethanol, 2.5% Tween 80, 92.5% saline.
# [1] = Brain, Payload 0.4 mg/kg + CTX 16 mg/kg IV
# [2] = Brain, Payload 0.4 mg/kg IV alone
# [3] = Heart, Payload 0.4 mg/kg + CTX 16 mg/kg IV
# [4] = Heart, Payload 0.4 mg/kg IV alone
# [5] = Kidney, Payload 0.4 mg/kg + CTX 16 mg/kg IV
# [6] = Kidney, Payload 0.4 mg/kg IV alone
# [7] = Liver, Payload 0.4 mg/kg + CTX 16 mg/kg IV
# [8] = Liver, Payload 0.4 mg/kg IV alone
# [9] = Payload 0.4 mg/kg + CTX 16 mg/kg IV, 0.083 h
# [10] = Payload 0.4 mg/kg + CTX 16 mg/kg IV, 0.5 h
# [11] = Payload 0.4 mg/kg + CTX 16 mg/kg IV, 1 h
# [12] = Payload 0.4 mg/kg + CTX 16 mg/kg IV, 2 h
# [13] = Payload 0.4 mg/kg + CTX 16 mg/kg IV, 6 h
# [14] = Payload 0.4 mg/kg + CTX 16 mg/kg IV, 24 h
# [15] = Payload 0.4 mg/kg IV alone, 0.083 h
# [16] = Payload 0.4 mg/kg IV alone, 0.5 h
# [17] = Payload 0.4 mg/kg IV alone, 1 h
# [18] = Payload 0.4 mg/kg IV alone, 2 h
# [19] = Payload 0.4 mg/kg IV alone, 6 h
# [20] = Payload 0.4 mg/kg IV alone, 24 h
# [21] = Plasma, Payload 0.4 mg/kg + CTX 16 mg/kg IV
# [22] = Plasma, Payload 0.4 mg/kg IV alone
# [23] = Small Intestine, Payload 0.4 mg/kg + CTX 16 mg/kg IV
# [24] = Small Intestine, Payload 0.4 mg/kg IV alone
# [25] = Tumor, Payload 0.4 mg/kg + CTX 16 mg/kg IV
# [26] = Tumor, Payload 0.4 mg/kg IV alone
compound,measurement,setting,value
COc1ccc(CC2NC(=O)C=CCC(C(C)C3OC3c3ccc(CN4CCN(CCC(C)(C)SC)CC4)cc3)OC(=O)C(CC(C)C)NC(=O)C(C)(C)CNC2=O)cc1Cl (stereo not drawn) [Cryptophycin Metabolite 1],AUC(0-t) of Cryptophycin Metabolite 1,[1],5.38 ng·h/g
same,tmax of Cryptophycin Metabolite 1,[1],2.00 h
same,AUC(0-t) of Cryptophycin Metabolite 1,[2],4.42 ng·h/g
same,tmax of Cryptophycin Metabolite 1,[2],0.08 h
same,AUC(0-inf) of Cryptophycin Metabolite 1,[3],620 ng·h/g
same,AUC(0-t) of Cryptophycin Metabolite 1,[3],616 ng·h/g
same,t1/2 of Cryptophycin Metabolite 1,[3],3.17 h
same,tmax of Cryptophycin Metabolite 1,[3],0.08 h
same,AUC(0-inf) of Cryptophycin Metabolite 1,[4],396 ng·h/g
same,AUC(0-t) of Cryptophycin Metabolite 1,[4],394 ng·h/g
same,t1/2 of Cryptophycin Metabolite 1,[4],3.06 h
same,tmax of Cryptophycin Metabolite 1,[4],0.08 h
same,AUC(0-t) of Cryptophycin Metabolite 1,[5],2720 ng·h/g
same,tmax of Cryptophycin Metabolite 1,[5],2.00 h
same,AUC(0-inf) of Cryptophycin Metabolite 1,[6],1750 ng·h/g
same,AUC(0-t) of Cryptophycin Metabolite 1,[6],1720 ng·h/g
same,t1/2 of Cryptophycin Metabolite 1,[6],3.99 h
same,tmax of Cryptophycin Metabolite 1,[6],0.50 h
same,AUC(0-inf) of Cryptophycin Metabolite 1,[7],2930 ng·h/g
same,AUC(0-t) of Cryptophycin Metabolite 1,[7],2900 ng·h/g
same,t1/2 of Cryptophycin Metabolite 1,[7],4.04 h
same,tmax of Cryptophycin Metabolite 1,[7],0.08 h
same,AUC(0-inf) of Cryptophycin Metabolite 1,[8],1870 ng·h/g
same,AUC(0-t) of Cryptophycin Metabolite 1,[8],1820 ng·h/g
same,t1/2 of Cryptophycin Metabolite 1,[8],4.77 h
same,tmax of Cryptophycin Metabolite 1,[8],0.08 h
same,"Concentration of Cryptophycin Metabolite 1, Brain, Mean",[9],0.622 ng/g
same,"Concentration of Cryptophycin Metabolite 1, Heart, Mean",[9],107 ng/g
same,"Concentration of Cryptophycin Metabolite 1, Kidney, Mean",[9],115 ng/g
same,"Concentration of Cryptophycin Metabolite 1, Liver, Mean",[9],1540 ng/g
same,"Concentration of Cryptophycin Metabolite 1, Plasma, Mean",[9],10.8 ng/mL
same,"Concentration of Cryptophycin Metabolite 1, Small Intestine, Mean",[9],10.4 ng/g
same,"Concentration of Cryptophycin Metabolite 1, Tumor, Mean",[9],2.61 ng/g
same,"Concentration of Cryptophycin Metabolite 1, Brain, Mean",[10],0.641 ng/g
same,"Concentration of Cryptophycin Metabolite 1, Heart, Mean",[10],94.9 ng/g
same,"Concentration of Cryptophycin Metabolite 1, Kidney, Mean",[10],252 ng/g
same,"Concentration of Cryptophycin Metabolite 1, Liver, Mean",[10],1000 ng/g
same,"Concentration of Cryptophycin Metabolite 1, Plasma, Mean",[10],8.10 ng/mL
same,"Concentration of Cryptophycin Metabolite 1, Small Intestine, Mean",[10],18.5 ng/g
same,"Concentration of Cryptophycin Metabolite 1, Tumor, Mean",[10],2.69 ng/g
same,"Concentration of Cryptophycin Metabolite 1, Brain, Mean",[11],1.07 ng/g
same,"Concentration of Cryptophycin Metabolite 1, Heart, Mean",[11],77.1 ng/g
same,"Concentration of Cryptophycin Metabolite 1, Kidney, Mean",[11],285 ng/g
same,"Concentration of Cryptophycin Metabolite 1, Liver, Mean",[11],1370 ng/g
same,"Concentration of Cryptophycin Metabolite 1, Plasma, Mean",[11],12.4 ng/mL
same,"Concentration of Cryptophycin Metabolite 1, Small Intestine, Mean",[11],26.9 ng/g
same,"Concentration of Cryptophycin Metabolite 1, Tumor, Mean",[11],3.90 ng/g
same,"Concentration of Cryptophycin Metabolite 1, Brain, Mean",[12],1.09 ng/g
same,"Concentration of Cryptophycin Metabolite 1, Heart, Mean",[12],87.9 ng/g
same,"Concentration of Cryptophycin Metabolite 1, Kidney, Mean",[12],370 ng/g
same,"Concentration of Cryptophycin Metabolite 1, Liver, Mean",[12],335 ng/g
same,"Concentration of Cryptophycin Metabolite 1, Plasma, Mean",[12],5.12 ng/mL
same,"Concentration of Cryptophycin Metabolite 1, Small Intestine, Mean",[12],21.8 ng/g
same,"Concentration of Cryptophycin Metabolite 1, Tumor, Mean",[12],9.66 ng/g
same,"Concentration of Cryptophycin Metabolite 1, Brain, Mean",[13],0.725 ng/g
same,"Concentration of Cryptophycin Metabolite 1, Heart, Mean",[13],43.7 ng/g
same,"Concentration of Cryptophycin Metabolite 1, Kidney, Mean",[13],191 ng/g
same,"Concentration of Cryptophycin Metabolite 1, Liver, Mean",[13],53.6 ng/g
same,"Concentration of Cryptophycin Metabolite 1, Plasma, Mean",[13],2.15 ng/mL
same,"Concentration of Cryptophycin Metabolite 1, Small Intestine, Mean",[13],14.8 ng/g
same,"Concentration of Cryptophycin Metabolite 1, Tumor, Mean",[13],12.2 ng/g
same,"Concentration of Cryptophycin Metabolite 1, Brain, Mean",[14],BLQ
same,"Concentration of Cryptophycin Metabolite 1, Heart, Mean",[14],0.763 ng/g
same,"Concentration of Cryptophycin Metabolite 1, Kidney, Mean",[14],9.65 ng/g
same,"Concentration of Cryptophycin Metabolite 1, Liver, Mean",[14],5.15 ng/g
same,"Concentration of Cryptophycin Metabolite 1, Plasma, Mean",[14],0.384 ng/mL
same,"Concentration of Cryptophycin Metabolite 1, Small Intestine, Mean",[14],4.02 ng/g
same,"Concentration of Cryptophycin Metabolite 1, Tumor, Mean",[14],10.8 ng/g
same,"Concentration of Cryptophycin Metabolite 1, Brain, Mean",[15],1.46 ng/g
same,"Concentration of Cryptophycin Metabolite 1, Heart, Mean",[15],87.1 ng/g
same,"Concentration of Cryptophycin Metabolite 1, Kidney, Mean",[15],225 ng/g
same,"Concentration of Cryptophycin Metabolite 1, Liver, Mean",[15],2710 ng/g
same,"Concentration of Cryptophycin Metabolite 1, Plasma, Mean",[15],23.6 ng/mL
same,"Concentration of Cryptophycin Metabolite 1, Small Intestine, Mean",[15],22.2 ng/g
same,"Concentration of Cryptophycin Metabolite 1, Tumor, Mean",[15],2.36 ng/g
same,"Concentration of Cryptophycin Metabolite 1, Brain, Mean",[16],0.895 ng/g
same,"Concentration of Cryptophycin Metabolite 1, Heart, Mean",[16],80.2 ng/g
same,"Concentration of Cryptophycin Metabolite 1, Kidney, Mean",[16],361 ng/g
same,"Concentration of Cryptophycin Metabolite 1, Liver, Mean",[16],499 ng/g
same,"Concentration of Cryptophycin Metabolite 1, Plasma, Mean",[16],8.37 ng/mL
same,"Concentration of Cryptophycin Metabolite 1, Small Intestine, Mean",[16],29.7 ng/g
same,"Concentration of Cryptophycin Metabolite 1, Tumor, Mean",[16],3.27 ng/g
same,"Concentration of Cryptophycin Metabolite 1, Brain, Mean",[17],0.983 ng/g
same,"Concentration of Cryptophycin Metabolite 1, Heart, Mean",[17],70.3 ng/g
same,"Concentration of Cryptophycin Metabolite 1, Kidney, Mean",[17],294 ng/g
same,"Concentration of Cryptophycin Metabolite 1, Liver, Mean",[17],310 ng/g
same,"Concentration of Cryptophycin Metabolite 1, Plasma, Mean",[17],6.46 ng/mL
same,"Concentration of Cryptophycin Metabolite 1, Small Intestine, Mean",[17],24.3 ng/g
same,"Concentration of Cryptophycin Metabolite 1, Tumor, Mean",[17],3.41 ng/g
same,"Concentration of Cryptophycin Metabolite 1, Brain, Mean",[18],0.887 ng/g
same,"Concentration of Cryptophycin Metabolite 1, Heart, Mean",[18],52.8 ng/g
same,"Concentration of Cryptophycin Metabolite 1, Kidney, Mean",[18],249 ng/g
same,"Concentration of Cryptophycin Metabolite 1, Liver, Mean",[18],194 ng/g
same,"Concentration of Cryptophycin Metabolite 1, Plasma, Mean",[18],4.32 ng/mL
same,"Concentration of Cryptophycin Metabolite 1, Small Intestine, Mean",[18],23.1 ng/g
same,"Concentration of Cryptophycin Metabolite 1, Tumor, Mean",[18],4.01 ng/g
same,"Concentration of Cryptophycin Metabolite 1, Brain, Mean",[19],0.412 ng/g
same,"Concentration of Cryptophycin Metabolite 1, Heart, Mean",[19],25.4 ng/g
same,"Concentration of Cryptophycin Metabolite 1, Kidney, Mean",[19],91.2 ng/g
same,"Concentration of Cryptophycin Metabolite 1, Liver, Mean",[19],37.2 ng/g
same,"Concentration of Cryptophycin Metabolite 1, Plasma, Mean",[19],1.86 ng/mL
same,"Concentration of Cryptophycin Metabolite 1, Small Intestine, Mean",[19],26.1 ng/g
same,"Concentration of Cryptophycin Metabolite 1, Tumor, Mean",[19],5.33 ng/g
same,"Concentration of Cryptophycin Metabolite 1, Brain, Mean",[20],BLQ
same,"Concentration of Cryptophycin Metabolite 1, Heart, Mean",[20],0.387 ng/g
same,"Concentration of Cryptophycin Metabolite 1, Kidney, Mean",[20],4.88 ng/g
same,"Concentration of Cryptophycin Metabolite 1, Liver, Mean",[20],7.89 ng/g
same,"Concentration of Cryptophycin Metabolite 1, Plasma, Mean",[20],0.141 ng/mL
same,"Concentration of Cryptophycin Metabolite 1, Small Intestine, Mean",[20],1.50 ng/g
same,"Concentration of Cryptophycin Metabolite 1, Tumor, Mean",[20],4.91 ng/g
same,AUC(0-inf) of Cryptophycin Metabolite 1,[21],53.2 ng·h/mL
same,AUC(0-t) of Cryptophycin Metabolite 1,[21],49.9 ng·h/mL
same,Cmax of Cryptophycin Metabolite 1,[21],12.4 ng/mL
same,t1/2 of Cryptophycin Metabolite 1,[21],6.24 h
same,tmax of Cryptophycin Metabolite 1,[21],1.0 h
same,AUC(0-inf) of Cryptophycin Metabolite 1,[22],40.7 ng·h/mL
same,AUC(0-t) of Cryptophycin Metabolite 1,[22],39.8 ng·h/mL
same,Cmax of Cryptophycin Metabolite 1,[22],23.6 ng/mL
same,t1/2 of Cryptophycin Metabolite 1,[22],4.57 h
same,tmax of Cryptophycin Metabolite 1,[22],0.083 h and 0.08 h
same,AUC(0-inf) of Cryptophycin Metabolite 1,[23],316 ng·h/g
same,AUC(0-t) of Cryptophycin Metabolite 1,[23],263 ng·h/g
same,t1/2 of Cryptophycin Metabolite 1,[23],9.18 h
same,tmax of Cryptophycin Metabolite 1,[23],1.00 h
same,AUC(0-inf) of Cryptophycin Metabolite 1,[24],314 ng·h/g
same,AUC(0-t) of Cryptophycin Metabolite 1,[24],302 ng·h/g
same,t1/2 of Cryptophycin Metabolite 1,[24],5.15 h
same,tmax of Cryptophycin Metabolite 1,[24],0.50 h
same,AUC(0-t) of Cryptophycin Metabolite 1,[25],259 ng·h/g
same,tmax of Cryptophycin Metabolite 1,[25],6.00 h
same,AUC(0-t) of Cryptophycin Metabolite 1,[26],117 ng·h/g
same,tmax of Cryptophycin Metabolite 1,[26],6.00 h
